Results as given in patent US20040029841A1, “Purinergic antagonists for treating depression” (priority 2002, published 2004).

System: brain bioenergetic status
Assay: In vivo 31P magnetic resonance spectroscopy and T2 relaxation times of the brain (axial slice, bilateral basal ganglia) in healthy individuals taking oral SAMe
Set-up: species or system human
Method: This lowering was measured as a decrease in the ratio of beta ATP to total ^31P MRS metabolites and detected using magnetic resonance imaging (see, e.g., U.S. Pat. No. 6,258,794, hereby incorporated by reference).
Five healthy men and seven healthy women self-administered 1600 mg of oral SAMe daily. The effect of SAMe on brain bioenergetic status, membrane integrity, and brain transverse relaxation time (T2) was then examined. In vivo ^31P magnetic resonance spectra and relaxation times were acquired, at baseline and after 14 and 28 days of treatment, from an axial slice (50 mm) encompassing the bilateral basal ganglia using a 1.5-T scanner. […] The changes observed in PCr and β-NTP are consistent with the report that SAMe is involved in the production of creatine, which in turn is phosphorylated to PCr at the expense of β-NTP (Braissant et al., Brain Res. Mol. Brain Res. 2001, 86:193-201).
As changes in T2 relaxation times are inversely related to alterations in steady state blood flow, the decrease in T2 observed in women corresponds to a 3.8% increase in cerebral blood flow.

Structure (SMILES): C[S+](CC[C@H](N)C(=O)O)C[C@H]1O[C@@H](n2cnc3c(N)ncnc32)[C@H](O)[C@@H]1O (some centres unmarked) [SAMe, S-adenosylmethionine]
- circulating levels of ATP (ratio of beta ATP to total 31P MRS metabolites) (healthy individuals, on average, magnetic resonance): lowering of circulating levels of ATP
- mole percent concentrations of phosphocreatine (PCr) (healthy men and women, 1600 mg oral SAMe daily, 14 and 28 days of treatment vs baseline, 31P MRS, basal ganglia slice): significantly higher than at baseline
- mole percent beta nucleoside triphosphate (β-NTP) levels, predominantly adenosine triphosphate in the brain (healthy men and women, 1600 mg oral SAMe daily, after treatment vs baseline, 31P MRS, FIG. 1): decreased significantly
- brain transverse relaxation time (T2) (women vs men at the end of the treatment regimen, 1600 mg oral SAMe daily): significantly lower T2 values than men
- increase in cerebral blood flow (women, worked out from the decrease in T2 relaxation time): 3.8%
